Read-outs that look alike come from different tables or passages of the source.
How the values were obtained:
[1] = tested on: P. berghei-ANKA-GFP-LucCON liver stage parasites in HepG2-A16-CD81EGFP cells; test: P. berghei liver stage Pb-Luc assay, Method 1 (UCSD, 1536-well); type: cell-based, Plasmodium berghei; details: Plasmodium berghei, 48 h, average of 2 wells, 1536-well plate; for activity at 1 µM: nominal 1 uM (10 mM stock), […] for 15 mM, 1.2 uM for 12 mM, 2 uM for 20 mM stock; for activity at 3 µM: nominal 3 uM (10 mM stock), 4.5 uM for 15 mM, 3.6 uM for 12 mM, 6 uM for 20 mM stock
[2] = tested on: Plasmodium falciparum Dd2 asexual blood stage parasites; test: microbe, parasite or virus in culture; parameters: species or system Plasmodium falciparum Dd2 in human erythrocytes; single determination (one 11-point concentration-response curve); details: Plasmodium falciparum, DD2, Erythrocyte, 72 h; read-out: AC50
[3] = tested on: HepG2-A16-CD81EGFP cells
[4] = in vitro; details: human
[5] = repeat 1, read-out: Pb-Luc signal, 1 uM, repeat 1
[6] = repeat 2, read-out: Pb-Luc signal, 1 uM, repeat 2
[7] = repeat 3, read-out: Pb-Luc signal, 1 uM, repeat 3
[8] = repeat 1, read-out: Pb-Luc signal, 3 uM, repeat 1
[9] = repeat 2, read-out: Pb-Luc signal, 3 uM, repeat 2
[10] = repeat 3, read-out: Pb-Luc signal, 3 uM, repeat 3
[11] = nominal 1 uM (10 mM stock), […] for 15 mM, 1.2 uM for 12 mM, 2 uM for 20 mM stock, average of 2 wells, repeat 2
[12] = nominal 3 uM (10 mM stock), 4.5 uM for 15 mM, 3.6 uM for 12 mM, 6 uM for 20 mM stock, average of 2 wells, repeat 2
[13] = HepG2-A16-CD81EGFP cells, uninfected

| Compound | activity at 1 µM [1, 5] [%] | activity at 1 µM [1, 6] [%] | activity at 1 µM [1, 7] [%] | activity at 3 µM [1, 8] [%] | activity at 3 µM [1, 9] [%] | activity at 3 µM [1, 10] [%] | AC50 [2] [nM] | HepG2 viability signal, 1 uM, repeat 2 [3, 11] [%] | HepG2 viability signal, 3 uM, repeat 2 [3, 12] [%] | viability at 48 h, 1 µM [4, 13] [%] | viability at 48 h, 3 µM [4, 13] [%] | HepG2 viability signal, 1 uM, repeat 2 ([3]; human, 48 h, 1 µM) [%] | HepG2 viability signal, 3 uM, repeat 2 ([3]; human, 48 h, 3 µM) [%] | viability at 48 h, 1 µM [4] [%] | viability at 48 h, 3 µM [4] [%] |
| --- | --- | --- | --- | --- | --- | --- | --- | --- | --- | --- | --- | --- | --- | --- | --- |
| COc1ccc(-c2noc(-c3cccn3CC(=O)Nc3ccccc3)n2)cc1F [NCGC00445500-01] | 155 | 167 | 187 | 187 | 192 | 169 | 2370 | 98.82 | 102.85 | 103 | 105 | – | – | – | – |
| CCN1CCN(C(=O)c2ccc3c(c2)N(Cc2ccccc2F)C(=O)c2ccccc2[S+]3[O-])CC1 (centres unmarked) [NCGC00109528-01] | 102 | 105 | 110 | 94.3 | 116 | 97.6 | 841 | 95.20 | 97.54 | 101 | 98.8 | – | – | – | – |
| COc1ccc(-c2noc(-c3cccn3CC(=O)Nc3ccccc3F)n2)cc1F [NCGC00445496-01] | 109 | 140 | 144 | 172 | 189 | 163 | 4220 | – | 99.66 | 98.5 | 101 | – | – | – | – |
| CCN1CCN(Cc2c(O)ccc3c(=O)c(Oc4ccccc4Cl)c(C(F)(F)F)oc23)CC1 [NCGC00101484-01] | 88.6 | 66 | 90.1 | 93.5 | 101 | 77.7 | 596 | 99.03 | 97.39 | 99.8 | 94.1 | – | – | – | – |
| COc1cccc([C@@H]2CCN(Cc3[nH]c4ccccc4c3C)C[C@H]2O)c1 [NCGC00443267-01] | 83.1 | 92.1 | 74.1 | 85.2 | 118 | 62.2 | 1500 | – | – | – | – | 93.46 | 93.99 | 91.9 | 96.2 |
| CC1=C(C(=O)Nc2ccc(C)cc2C)C(c2ccc([N+](=O)[O-])cc2)n2ncc(C(=O)Nc3ccc(F)cc3)c2N1 (centres unmarked) [NCGC00126356-01] | 110 | 107 | 122 | 80.3 | 94 | 83.4 | 2990 | 98.93 | 92.77 | 98.5 | 94.6 | – | – | – | – |
| CN1CCN(C(=O)c2ccc3c(c2)N(Cc2ccc(C(F)(F)F)cc2)C(=O)c2ccccc2S3)CC1 [NCGC00108242-01] | 104 | 123 | 103 | 91 | 99.2 | 92.4 | 531 | 102.88 | 103.88 | 99.8 | 101 | – | – | – | – |
| COc1cc2c(cc1OCc1ccccc1)N(C(=O)c1cc3ccccc3[nH]1)CC21CCN(C)CC1 [NCGC00419851-01] | 59.5 | 89.6 | 74.1 | 16.8 | 54.6 | 95.7 | 944 | – | – | – | – | 101.97 | 102.28 | 99 | 98.9 |
| CCN1CCN(C(=O)c2ccc3c(c2)N(Cc2ccc(Cl)cc2)C(=O)c2ccccc2[S+]3[O-])CC1 (centres unmarked) [NCGC00109464-01] | 104 | 92.1 | 102 | 83.2 | 80.5 | 103 | 668 | 105.55 | 102.35 | 110 | 108 | – | – | – | – |

Reference: article PMC7822874, “Chemoprotective antimalarials identified through quantitative high-throughput screening of Plasmodium blood and liver stage parasites” (Scientific Reports, 2021)
